The text below walks through data of patent US20060280725A1, “Compositions and methods of treating and diagnosing hepatoma” (priority 2003, published 2006).

Data set [1] concerns hepatoma cells. Description: Cell counts after siRNA1 treatment. The class given is cell-based, human. Here is the method: (§1) FIG. 16. […] Panel C are photos from the experiment of panel B.
(§2) The physiological effects of downregulating ASCT2 expression by administration of siRNA1 in hepatoma cells were studied. Glutamine transport, which was measured as nanomoles of glutamine per milligram of total protein per 30s, was examined at 24 hours and at 48 hours in Lipofectamine treated cells and Lipofectamine+50 nM siRNA1. […] Cell counts were made at 48 hours of hepatoma cultures, each of which were started with the same number of viable cells, receiving either Lipofectamine™ 200 alone or Lipofectamine™ 200 plus siRNA1. After 48 hours, a 40% reduction in the number of cells that had received isRNA1 (which comprises SEQ ID NO:3) relative to control cells was observed.

In data set [2] the test system is ASCT2/ATB^0 RNA. Description: Northern blot analysis of ASCT2/ATB0 silencing in six human liver cancer cell lines. The class given is cell-based. Conditions: 50 nM. An excerpt:
FIG. 17. […] Panel B are the phospho-imager quantification results of the blot shown in panel A (normalized to beta actin mRNA levels).
RNA was extracted from six (6) human liver cancer cell lines and subject to northern blot analysis using ASCT2/ATB^0 DNA as a probe. Actin RNA was probed as a baseline control. […] Those autoradiograms were subjected to phospho-imager quantitative analysis and normalized to actin RNA expression (FIG. 17, panel B). The designation “L” refers to Liopfectamine™ 200 alone, and “S” refers to Liopfectamine™ 200 plus siRNA at 50 nM.

Data set [3] has as its system hepatoma cells. Description: Glutamine transport after siRNA1 treatment. In kind it is cell-based, human. Here is the method:
as §1, §2

The test system of data set [4] is ASCT2 mRNA. In words: Northern blot analysis of ASCT2 mRNA after siRNA transfection. In kind it is cell-based, human. As for the experimental part: FIG. 15. […] B is the phospho-imager quantification of the bands in A. C is the concentration curve for siRNA1, showing that 50 nM is sufficient for maximum silencing of ASCT2 expression.
siRNAs that are specific to ASCT2 were designed using several known algorithms and then checked for specificity. Four (4) siRNAs, i.e., siRNA1 (which comprises SEQ ID NO:3), siRNA2 (which comprises SEQ ID NO:4), siRNA3 (which comprises SEQ ID NO:5), and siRNA4 (which comprises SEQ ID NO:6), were synthesized. SK-Hep cells were transfected with 50 nM concentration of any one of siRNA1, 2, 3 or 4 using Lipofectamine™ 2000 (Invitrogen™ life technologies) based on the protocols set forth in Gitlin, L., Karelsky, S., and Andino, R. (2002), Nature 418: 430-434; Yu, J. Y., DeRuiter, S. L., and Turner, D. L. (2002), Proc. Nat. Acad. Sci. USA 99:6047-6052; and “Transfecting siRNA into Mammalian Cells Using Lipofectamine™ 2000,” Form No. 18057N, Doc. Rev. 102802 by Invitrogen Corporation (2002), which are herein incorporated by reference. At 24 hours and at 48 hours, RNAs were extracted from the transfected cells and the expression of ASCT2 was examined by Northern blot analysis (see FIG. 15A).
Hepatoma cells were then treated with Lipofectamine™ 200 without siRNA1, with 12.5 nM, 25 nM, 50 nM or 100 nM siRNA1.

As for “siRNA1: siRNA specific to ASCT2, which comprises SEQ ID NO:3 (AGGAGGTGCTCGATTCGTT; listed as DNA, chemistry not given here; listed as Homo sapiens)”, in data set [1] (FIG. 16 panel B), the “cellular loss compared to transfection reagent alone” value is “leads to cellular loss (death)”. In data set [1] (after 48 hours, vs Lipofectamine alone), the “reduction in the number of cells relative to control cells” value is given as 40%. Besides, the “relative ASCT2/ATB^0 expression (normalized to actin RNA)” value in data set [2] is listed as “significant reduction”. In addition, in data set [3] (50 nM, 24 and 48 hours, vs Lipofectamine alone, p<0.01), the “reduction in glutamine transport relative to controls” value was “greater than 50%”. In addition, the “ASCT2 function (glutamine uptake)” value in data set [3] (FIG. 16 panel A) is “substantially decreases”. The “relative effectiveness at reducing ASCT2 expression (mRNA relative to actin)” value in data set [4] (SK-Hep, 50 nM siRNA, 24 and 48 hours) is on record as “most effective of the four siRNAs”. In addition, in data set [4] (tested 12.5, 25, 50, 100 nM), the “concentration sufficient for maximum silencing of ASCT2 expression” value is 50 nM.
